Test results published in patent US10946074B2, “GLP-1 derivatives and uses thereof” (Novo Nordisk A/S, priority 2016, dated 2021).
Like-named read-outs stand apart in the source and are kept apart here. Starred links: 1 amine or outer side, 2 acyl side, 3 side chain; linkers in the order of their positions; H or OH if unused. Residues, ends and D or L forms follow the SMILES beside them. Groups on a side chain read outwards from the residue. *: point of attachment. γGlu = O=C(O)[C@H](CCC(=O)[*:2])N[*:1]; C14 diacid = O=C(O)CCCCCCCCCCCCC(=O)*; AEEA = NCCOCCOCC(=O)O

Key:
human GLP-1 receptor [1] = target: T1, human GLP-1 receptor (Homo sapiens, UniProt P43220); experiment: In vitro potency, CRE luciferase reporter gene assay in BHK cells expressing the human GLP-1 receptor; assay type: cell-based; conditions: 3 h, 0% HSA, average of at least three replicates
T1 construct: expressed in transfected cells; host or cells: membranes of BHK cells (parent BHKTS13), clone FCW467-12A
Protocol: When assay incubation is completed the luciferase substrate (luciferin) is added and the enzyme converts luciferin to oxyluciferin to produce bioluminescence. The luminescence is measured as the readout for the assay.
The cells were cultured at 5% CO2 in cell culture medium. They were aliquoted and stored in liquid nitrogen. Before each assay an aliquot was taken up and washed twice in PBS before being suspended at the desired concentration in the assay specific buffer. For 96-well plates the suspension was made to give a final concentration of 5×10^3 cells/well.
Assay medium consisted of DMEM w/o phenol red, 10 mM Hepes and 1× Glutamax. The assay buffer consisted of 2% w/v ovalbumin and 0.2% v/v Pluronic F-68 in assay medium.
3) Cells were counted and adjusted to 5×10^3 cells/50 μl (1×10^5 cells/ml) in assay medium. A 50 μl aliquot of cells was transferred to each well in the assay plate.
4) Stocks of the test compounds and reference compounds were diluted to a concentration of 0.2 μM in assay buffer. […] Compounds were tested at the following final concentrations: 1×10^−7 M, 1×10^−8 M; 1×10^−9 M, 1×10^−10 M, 1×10^−11 M, 1×10^−12 M, 1×10^−13 M, and 1×10^−14 M. 6) The assay plate was incubated for 3 h in a 5% CO2 incubator at 37° C. […] 8) A 100 μl aliquot of steadylite plus reagent was added to each well of the assay plate. 9) Each assay plate was covered with aluminum foil to protect it from light and shaken for 30 min at room temperature. 10) Each assay plate was read in a BioTek Synergy 2 Multi-Mode Reader. Calculations and Results
The data from the BioTek Synergy 2 Multi-Mode Reader were transferred to GraphPad Prism software. The software performs a non-linear regression (log(agonist) vs. response (three parameters)).
A minimum of three replicates were measured for each sample. The reported EC50 values are averages of the measured values for each compound.

human GLP-1 receptor [2] = target: T1, human GLP-1 receptor; experiment: GLP-1 receptor binding, competitive binding assay with 125I-GLP-1 on isolated membranes (SPA)
Protocol: The receptor binding is reported as the concentration at which half of the labelled ligand is displaced from the receptor, the IC50 value.
Buffer 1 consisted of 20 mM Na-HEPES plus 10 mM EDTA and pH was adjusted to 7.4. Buffer 2 consisted of 20 mM Na-HEPES plus 0.1 mM EDTA and pH was adjusted to 7.4. Assay buffer consisted of 50 mM HEPES supplemented with 5 mM EGTA, 5 mM MgCl2, 0.005% w/v Tween 20 and pH was adjusted to 7.4. An 8% albumin stock consisted of HSA dissolved at 8% (w/v) in assay buffer. An 0.02% albumin stock consisted of HSA dissolved at 0.02% (w/v) in assay buffer.
To make a membrane preparation the cells were grown to approximately 80% confluence. The cells were washed twice in phosphate-buffered saline and harvested. The cells were pelleted using a brief centrifugation and the cell pellet was kept on ice. The cell pellet was homogenised with ULTRA-THURRAX™ dispersing instrument for 20-30 seconds in a suitable amount of buffer 1 (e.g., 10 ml). The homogenate was centrifuged for 15 minutes. The pellet was re-suspended (homogenised) in 10 ml buffer 2 and centrifuged. This step was repeated once more. The resulting pellet was re-suspended in buffer 2 and the protein concentration was determined. The membranes were aliquoted and stored at minus 80° C.
For the receptor binding assay in the presence of low HSA (0.005% (w/v)) 50 μl of the assay buffer was added to each well of an assay plate. Assay continued with step 3.
For the receptor binding assay in the presence of high HSA (2% (w/v)) 50 μl of the 8% (w/v) albumin stock was added to each well of an assay plate. Assay continued with step 3.
Cell membrane aliquots were thawed and diluted to their working concentration. Fifty μl were added to each well in the assay plate.
WGA SPA beads were suspended in assay buffer at 20 mg/ml. The suspension was diluted to 10 mg/ml in assay buffer just prior to addition to the assay plate. Fifty μl were added to each well in the assay plate.
A 25 μl aliquot was reserved for measuring total counts/well.
The assay plate was incubated for 2 h at 30° C.
The assay plate was centrifuged for 10 min.
The assay plate was read in a Packard TopCount NXT instrument.
Individual replicates were analysed using non-linear regression in GraphPad Prism. IC50 values were calculated by the software and reported in nM. A minimum of two replicates was measured for each sample. The reported values are averages of all of the measured values for each compound.

[3] = high HSA (2.0% (w/v) final assay concentration), read-out: GLP-1 receptor binding High HSA IC50
[4] = low HSA (max. 0.001% (w/v) final assay concentration), read-out: GLP-1 receptor binding Low HSA IC50

T1 sequence (P43220 24-463): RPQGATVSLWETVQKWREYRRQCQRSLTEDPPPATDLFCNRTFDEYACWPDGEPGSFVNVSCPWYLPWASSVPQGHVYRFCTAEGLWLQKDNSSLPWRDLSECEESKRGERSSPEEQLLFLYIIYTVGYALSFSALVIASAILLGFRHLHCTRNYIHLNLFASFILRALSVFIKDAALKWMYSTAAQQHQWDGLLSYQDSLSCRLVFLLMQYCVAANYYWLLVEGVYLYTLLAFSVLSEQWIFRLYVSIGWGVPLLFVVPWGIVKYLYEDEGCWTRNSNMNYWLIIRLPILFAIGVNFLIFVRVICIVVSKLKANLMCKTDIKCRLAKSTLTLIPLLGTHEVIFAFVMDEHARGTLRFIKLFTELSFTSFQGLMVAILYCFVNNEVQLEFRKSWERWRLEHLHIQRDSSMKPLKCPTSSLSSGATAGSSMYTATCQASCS

EC50 (human GLP-1 receptor [1]) [nM] | IC50 (human GLP-1 receptor [2]; [3]) [nM] | IC50 (human GLP-1 receptor [2]; [4]) [nM] | Compound
0.0081 | 116 | 0.318 | CC[C@H](C)[C@H](NC(=O)[C@H](Cc1ccccc1)NC(=O)[C@H](CCC(=O)O)NC(=O)[C@H](CCCNC(=N)N)NC(=O)[C@H](C)NC(=O)[C@H](C)NC(=O)[C@H](CCC(N)=O)NC(=O)[C@H](CCC(=O)O)NC(=O)[C@H](CCC(=O)O)NC(=O)[C@H](CC(C)C)NC(=O)[C@H](Cc1ccc(O)cc1)NC(=O)[C@H](CO)NC(=O)[C@H](CO)NC(=O)[C@@H](NC(=O)[C@H](CC(=O)O)NC(=O)[C@H](CO)NC(=O)[C@@H](NC(=O)[C@H](Cc1ccccc1)NC(=O)[C@@H](NC(=O)CNC(=O)[C@H](CCC(=O)O)NC(=O)C(C)(C)NC(=O)[C@@H](N)Cc1c[nH]cn1)[C@@H](C)O)[C@@H](C)O)C(C)C)C(=O)N[C@@H](C)C(=O)N[C@@H](Cc1c[nH]c2ccccc12)C(=O)N[C@@H](CC(C)C)C(=O)N[C@H](C(=O)N[C@@H](CCCNC(=N)N)C(=O)NCC(=O)N[C@@H](CCCCNC(=O)COCCOCCNC(=O)COCCOCCNC(=O)CC[C@H](NC(=O)CCCCCCCCCOc1cccc(C(=O)O)c1)C(=O)O)C(=O)N[C@@H](CCCCNC(=O)COCCOCCNC(=O)COCCOCCNC(=O)CC[C@H](NC(=O)CCCCCCCCCOc1cccc(C(=O)O)c1)C(=O)O)C(=O)O)C(C)C [Comparative 1A]
0.0026 | 31.5 | 0.744 | CC[C@H](C)[C@H](NC(=O)[C@H](Cc1ccccc1)NC(=O)[C@H](CCC(=O)O)NC(=O)[C@H](CCCNC(=N)N)NC(=O)[C@H](C)NC(=O)[C@H](C)NC(=O)[C@H](CCC(N)=O)NC(=O)[C@H](CCC(=O)O)NC(=O)[C@H](CCC(=O)O)NC(=O)[C@H](CC(C)C)NC(=O)[C@H](Cc1ccc(O)cc1)NC(=O)[C@H](CO)NC(=O)[C@H](CO)NC(=O)[C@@H](NC(=O)[C@H](CC(=O)O)NC(=O)[C@H](CO)NC(=O)[C@@H](NC(=O)[C@H](Cc1ccccc1)NC(=O)[C@@H](NC(=O)CNC(=O)[C@H](CCC(=O)O)NC(=O)C(C)(C)NC(=O)[C@@H](N)Cc1c[nH]cn1)[C@@H](C)O)[C@@H](C)O)C(C)C)C(=O)N[C@@H](C)C(=O)N[C@@H](Cc1c[nH]c2ccccc12)C(=O)N[C@@H](CC(C)C)C(=O)N[C@H](C(=O)N[C@@H](CCCNC(=N)N)C(=O)NCC(=O)N[C@@H](CCCCNC(=O)COCCOCCNC(=O)COCCOCCNC(=O)COCCOCCNC(=O)COCCOCCNC(=O)CC[C@H](NC(=O)CCCCCCCCCCCCC(=O)O)C(=O)O)C(=O)N[C@@H](CCCCNC(=O)COCCOCCNC(=O)COCCOCCNC(=O)COCCOCCNC(=O)COCCOCCNC(=O)CC[C@H](NC(=O)CCCCCCCCCCCCC(=O)O)C(=O)O)C(=O)O)C(C)C [Comparative 7A]
0.0168 | 108 | 0.591 | CC[C@H](C)[C@H](NC(=O)[C@H](Cc1ccccc1)NC(=O)[C@H](CCC(=O)O)NC(=O)[C@H](CCCNC(=N)N)NC(=O)[C@H](C)NC(=O)[C@H](C)NC(=O)[C@H](CCC(N)=O)NC(=O)[C@H](CCC(=O)O)NC(=O)[C@H](CCC(=O)O)NC(=O)[C@H](CC(C)C)NC(=O)[C@H](Cc1ccc(O)cc1)NC(=O)[C@H](CO)NC(=O)[C@H](CO)NC(=O)[C@@H](NC(=O)[C@H](CC(=O)O)NC(=O)[C@H](CO)NC(=O)[C@@H](NC(=O)[C@H](Cc1ccccc1)NC(=O)[C@@H](NC(=O)CNC(=O)[C@H](CCC(=O)O)NC(=O)C(C)(C)NC(=O)[C@@H](N)Cc1c[nH]cn1)[C@@H](C)O)[C@@H](C)O)C(C)C)C(=O)N[C@@H](C)C(=O)N[C@@H](Cc1c[nH]c2ccccc12)C(=O)N[C@@H](CC(C)C)C(=O)N[C@H](C(=O)N[C@@H](CCCNC(=N)N)C(=O)NCC(=O)N[C@@H](CCCNC(=N)N)C(=O)N[C@@H](CCCCNC(=O)[C@H](CCCCNC(=O)COCCOCCNC(=O)COCCOCCNC(=O)COCCOCCNC(=O)COCCOCCNC(=O)COCCOCCNC(=O)COCCOCCNC(=O)CC[C@H](NC(=O)[C@H]1CC[C@H](CNC(=O)CCCCCCCCCCCCCCCCCCC(=O)O)CC1)C(=O)O)NC(=O)COCCOCCNC(=O)COCCOCCNC(=O)COCCOCCNC(=O)COCCOCCNC(=O)COCCOCCNC(=O)COCCOCCNC(=O)CC[C@H](NC(=O)[C@H]1CC[C@H](CNC(=O)CCCCCCCCCCCCCCCCCCC(=O)O)CC1)C(=O)O)C(=O)O)C(C)C [Comparative 10A]
0.0137 | 42.3 | 0.536 | CC[C@H](C)[C@H](NC(=O)[C@H](Cc1ccccc1)NC(=O)[C@H](CCC(=O)O)NC(=O)[C@H](CCCNC(=N)N)NC(=O)[C@H](C)NC(=O)[C@H](C)NC(=O)[C@H](CCC(N)=O)NC(=O)[C@H](CCC(=O)O)NC(=O)[C@H](CCC(=O)O)NC(=O)[C@H](CC(C)C)NC(=O)[C@H](Cc1ccc(O)cc1)NC(=O)[C@H](CO)NC(=O)[C@H](CO)NC(=O)[C@@H](NC(=O)[C@H](CC(=O)O)NC(=O)[C@H](CO)NC(=O)[C@@H](NC(=O)[C@H](Cc1ccccc1)NC(=O)[C@@H](NC(=O)CNC(=O)[C@H](CCC(=O)O)NC(=O)C(C)(C)NC(=O)[C@@H](N)Cc1c[nH]cn1)[C@@H](C)O)[C@@H](C)O)C(C)C)C(=O)N[C@@H](C)C(=O)N[C@@H](Cc1c[nH]c2ccccc12)C(=O)N[C@@H](CC(C)C)C(=O)N[C@H](C(=O)N[C@@H](CCCNC(=N)N)C(=O)NCC(=O)N[C@@H](CCCNC(=N)N)C(=O)N[C@@H](CCCCNC(=O)COCCOCCNC(=O)COCCOCCNC(=O)[C@H](CCCCNC(=O)COCCOCCNC(=O)COCCOCCNC(=O)COCCOCCNC(=O)COCCOCCNC(=O)CC[C@H](NC(=O)[C@H]1CC[C@H](CNC(=O)CCCCCCCCCCCCCCCCCCC(=O)O)CC1)C(=O)O)NC(=O)COCCOCCNC(=O)COCCOCCNC(=O)COCCOCCNC(=O)COCCOCCNC(=O)CC[C@H](NC(=O)[C@H]1CC[C@H](CNC(=O)CCCCCCCCCCCCCCCCCCC(=O)O)CC1)C(=O)O)C(=O)O)C(C)C [Comparative 12A]
0.0147 | 35.4 | 0.383 | CC[C@H](C)[C@H](NC(=O)[C@H](Cc1ccccc1)NC(=O)[C@H](CCC(=O)O)NC(=O)[C@H](CCCNC(=N)N)NC(=O)[C@H](C)NC(=O)[C@H](C)NC(=O)[C@H](CCC(N)=O)NC(=O)[C@H](CCC(=O)O)NC(=O)[C@H](CCC(=O)O)NC(=O)[C@H](CC(C)C)NC(=O)[C@H](Cc1ccc(O)cc1)NC(=O)[C@H](CO)NC(=O)[C@H](CO)NC(=O)[C@@H](NC(=O)[C@H](CC(=O)O)NC(=O)[C@H](CO)NC(=O)[C@@H](NC(=O)[C@H](Cc1ccccc1)NC(=O)[C@@H](NC(=O)CNC(=O)[C@H](CCC(=O)O)NC(=O)C(C)(C)NC(=O)[C@@H](N)Cc1c[nH]cn1)[C@@H](C)O)[C@@H](C)O)C(C)C)C(=O)N[C@@H](C)C(=O)N[C@@H](Cc1c[nH]c2ccccc12)C(=O)N[C@@H](CC(C)C)C(=O)N[C@H](C(=O)N[C@@H](CCCNC(=N)N)C(=O)NCC(=O)N[C@@H](CCCNC(=N)N)C(=O)N[C@@H](CCCCNC(=O)COCCOCCNC(=O)COCCOCCNC(=O)CN(CCCNC(=O)COCCOCCNC(=O)COCCOCCNC(=O)COCCOCCNC(=O)COCCOCCNC(=O)CC[C@H](NC(=O)[C@H]1CC[C@H](CNC(=O)CCCCCCCCCCCCCCCCCCC(=O)O)CC1)C(=O)O)CCCNC(=O)COCCOCCNC(=O)COCCOCCNC(=O)COCCOCCNC(=O)COCCOCCNC(=O)CC[C@H](NC(=O)[C@H]1CC[C@H](CNC(=O)CCCCCCCCCCCCCCCCCCC(=O)O)CC1)C(=O)O)C(=O)O)C(C)C [Comparative 13A]
0.0056 | 71 |  | CC[C@H](C)[C@H](NC(=O)[C@H](Cc1ccccc1)NC(=O)[C@H](CCC(=O)O)NC(=O)[C@H](CCCNC(=N)N)NC(=O)[C@H](C)NC(=O)[C@H](C)NC(=O)[C@H](CCC(N)=O)NC(=O)[C@H](CCC(=O)O)NC(=O)[C@H](CCC(=O)O)NC(=O)[C@H](CC(C)C)NC(=O)[C@H](Cc1ccc(O)cc1)NC(=O)[C@H](CO)NC(=O)[C@H](CO)NC(=O)[C@@H](NC(=O)[C@H](CC(=O)O)NC(=O)[C@H](CO)NC(=O)[C@@H](NC(=O)[C@H](Cc1ccccc1)NC(=O)[C@@H](NC(=O)CNC(=O)[C@H](CCC(=O)O)NC(=O)[C@H](Cc1c[nH]c2ccccc12)NC(=O)[C@@H](N)Cc1c[nH]cn1)[C@@H](C)O)[C@@H](C)O)C(C)C)C(=O)N[C@@H](C)C(=O)N[C@@H](Cc1c[nH]c2ccccc12)C(=O)N[C@@H](CC(C)C)C(=O)N[C@H](C(=O)N[C@@H](CCCNC(=N)N)C(=O)NCC(=O)N[C@@H](CCCCNC(=O)COCCOCCNC(=O)COCCOCCNC(=O)COCCOCCNC(=O)COCCOCCNC(=O)CC[C@H](NC(=O)CCCCCCCCCCCCC(=O)O)C(=O)O)C(=O)N[C@@H](CCCCNC(=O)COCCOCCNC(=O)COCCOCCNC(=O)COCCOCCNC(=O)COCCOCCNC(=O)CC[C@H](NC(=O)CCCCCCCCCCCCC(=O)O)C(=O)O)C(=O)O)C(C)C [Example 7] (H-HWEGTFTSDVSSYLEEQAAREFIAWLVRGK([AEEA-AEEA-AEEA-AEEA-γGlu-C14 diacid])K([AEEA-AEEA-AEEA-AEEA-γGlu-C14 diacid])-OH; N-terminus and C-terminus assumed)
